Results: ChEMBL document CHEMBL3407416, “Discovery of (R)-8-(1-(3,5-difluorophenylamino)ethyl)-N,N-dimethyl-2-morpholino-4-oxo-4H-chromene-6-carboxamide (AZD8186): a potent and selective inhibitor of PI3Kβ and PI3Kδ for the treatment of PTEN-deficient cancers” (J Med Chem, 2015)

Legend:
[1] = target: T1, Phosphatidylinositol 4,5-bisphosphate 3-kinase catalytic subunit alpha isoform (Homo sapiens, UniProt P42336); assay: Inhibition of PI3Kalpha mutant human BT474 cells assessed as inhibition of Akt phosphorylation at […] after 2 hrs; assay type: cell-based; conditions: bt-474
Target sequence in this assay (P42336 whole entry, looked up, canonical isoform): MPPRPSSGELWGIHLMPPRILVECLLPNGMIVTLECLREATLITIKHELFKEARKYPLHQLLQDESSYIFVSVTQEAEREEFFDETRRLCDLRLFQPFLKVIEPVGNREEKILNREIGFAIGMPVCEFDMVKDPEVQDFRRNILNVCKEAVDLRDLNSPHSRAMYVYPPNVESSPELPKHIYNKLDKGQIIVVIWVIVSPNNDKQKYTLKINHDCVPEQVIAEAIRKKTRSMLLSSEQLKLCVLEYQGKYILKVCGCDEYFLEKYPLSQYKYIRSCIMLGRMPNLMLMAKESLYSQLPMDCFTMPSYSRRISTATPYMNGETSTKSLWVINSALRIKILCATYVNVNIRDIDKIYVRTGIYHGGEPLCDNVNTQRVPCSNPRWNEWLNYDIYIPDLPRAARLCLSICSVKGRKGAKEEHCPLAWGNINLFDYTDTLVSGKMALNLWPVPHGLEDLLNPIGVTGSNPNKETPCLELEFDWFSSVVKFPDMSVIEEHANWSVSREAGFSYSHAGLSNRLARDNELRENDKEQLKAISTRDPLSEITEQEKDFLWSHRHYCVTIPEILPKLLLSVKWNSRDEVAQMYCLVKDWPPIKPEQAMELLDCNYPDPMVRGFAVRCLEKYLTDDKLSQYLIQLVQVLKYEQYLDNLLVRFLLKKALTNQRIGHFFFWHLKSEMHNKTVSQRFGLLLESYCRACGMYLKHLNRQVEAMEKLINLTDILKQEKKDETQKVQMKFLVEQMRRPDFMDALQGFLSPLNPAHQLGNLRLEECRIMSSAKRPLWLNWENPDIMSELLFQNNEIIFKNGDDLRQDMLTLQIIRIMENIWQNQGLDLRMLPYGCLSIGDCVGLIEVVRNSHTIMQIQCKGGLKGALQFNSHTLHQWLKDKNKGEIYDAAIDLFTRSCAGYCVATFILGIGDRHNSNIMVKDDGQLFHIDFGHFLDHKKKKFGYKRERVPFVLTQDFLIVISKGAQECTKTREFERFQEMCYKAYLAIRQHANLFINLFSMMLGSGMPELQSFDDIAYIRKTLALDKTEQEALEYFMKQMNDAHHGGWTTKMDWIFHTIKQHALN

[2] = Oral bioavailability in mouse at 30 umol/kg administered as propylene glycol; assay type: ADME, organism-based; conditions: in vivo
[3] = AUC in mouse at 30 umol/kg, po administered as propylene glycol; assay type: ADME, organism-based; conditions: plasma
[4] = target: T2, Phosphatidylinositol 4,5-bisphosphate 3-kinase catalytic subunit delta isoform (Homo sapiens, UniProt O00329); assay: Inhibition of human recombinant PI3Kdelta using PIP2 by Kinase-Glo Plus assay
T2 sequence (O00329 whole entry): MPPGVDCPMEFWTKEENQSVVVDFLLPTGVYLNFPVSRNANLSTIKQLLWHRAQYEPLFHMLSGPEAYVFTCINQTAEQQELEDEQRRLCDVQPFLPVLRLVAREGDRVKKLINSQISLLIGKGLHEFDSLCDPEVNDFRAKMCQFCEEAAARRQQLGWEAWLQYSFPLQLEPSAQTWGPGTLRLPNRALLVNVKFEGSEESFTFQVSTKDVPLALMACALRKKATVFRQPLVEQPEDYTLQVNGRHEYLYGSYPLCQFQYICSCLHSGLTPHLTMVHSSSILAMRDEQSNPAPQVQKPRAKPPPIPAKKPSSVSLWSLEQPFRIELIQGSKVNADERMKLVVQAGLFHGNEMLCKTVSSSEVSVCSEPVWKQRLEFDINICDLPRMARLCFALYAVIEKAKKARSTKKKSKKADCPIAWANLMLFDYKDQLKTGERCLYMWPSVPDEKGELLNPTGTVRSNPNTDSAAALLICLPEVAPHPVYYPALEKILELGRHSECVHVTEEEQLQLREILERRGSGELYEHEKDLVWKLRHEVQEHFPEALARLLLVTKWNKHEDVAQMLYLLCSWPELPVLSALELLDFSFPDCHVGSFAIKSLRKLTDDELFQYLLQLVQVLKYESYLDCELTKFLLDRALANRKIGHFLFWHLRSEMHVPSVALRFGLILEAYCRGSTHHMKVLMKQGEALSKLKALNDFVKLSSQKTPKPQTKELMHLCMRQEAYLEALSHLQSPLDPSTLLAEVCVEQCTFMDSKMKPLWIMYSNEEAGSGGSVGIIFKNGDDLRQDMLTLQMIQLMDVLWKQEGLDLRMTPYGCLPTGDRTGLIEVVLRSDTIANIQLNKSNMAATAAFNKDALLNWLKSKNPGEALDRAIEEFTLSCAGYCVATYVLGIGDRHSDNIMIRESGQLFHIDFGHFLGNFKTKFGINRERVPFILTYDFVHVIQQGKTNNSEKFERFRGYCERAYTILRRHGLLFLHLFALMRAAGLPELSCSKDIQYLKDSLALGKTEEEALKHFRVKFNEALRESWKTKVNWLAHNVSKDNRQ

[5] = Lipophilicity, log D of the compound at pH 7.4 by shake-flask method; assay type: physicochemical; conditions: buffer
[6] = Clearance in mouse at 5 umol/kg, iv administered as bolus dose in 20 to 30% DMA in PBS; assay type: ADME, organism-based; conditions: in vivo
[7] = target: T1, Phosphatidylinositol 4,5-bisphosphate 3-kinase catalytic subunit alpha isoform; assay: Inhibition of human recombinant PI3Kalpha using PIP2 by Kinase-Glo Plus assay
Target sequence in this assay (P42336 whole entry, canonical isoform): as the sequence (P42336 whole entry, looked up, canonical isoform) above

[8] = target: Phosphatidylinositol 4,5-bisphosphate 3-kinase catalytic subunit gamma isoform (Homo sapiens, UniProt P48736); assay: Inhibition of human recombinant PI3Kgamma using PIP2 by Kinase-Glo Plus assay
[9] = Fraction unbound in mouse plasma; assay type: ADME, cell-free
[10] = Apparent permeability from apical to basolateral side of human Caco2 cells; assay type: ADME, cell-based; conditions: Caco-2, read-out: permeability
[11] = Volume of distribution in mouse at 5 umol/kg, iv administered as bolus dose in 20 to 30% DMA in PBS; assay type: ADME, organism-based; conditions: in vivo
[12] = Intrinsic clearance in cryopreserved human hepatocytes measured per 10^6 cells; assay type: ADME, cell-based, Hepatocyte; conditions: read-out: CLH
Mus musculus = assay: Intrinsic clearance in mouse at 5 umol/kg, iv administered as bolus dose in 20 to 30% DMA in PBS; assay type: ADME, organism-based; conditions: in vivo
[13] = Fraction unbound in human plasma; assay type: ADME, cell-free
[14] = target: T3, Phosphatidylinositol 4,5-bisphosphate 3-kinase catalytic subunit beta isoform (Homo sapiens, UniProt P42338); assay: Inhibition of human recombinant PI3Kbeta using PIP2 by Kinase-Glo Plus assay
[15] = Fraction unbound in dog plasma; assay type: ADME, cell-free, Canis lupus familiaris
[16] = target: T3, Phosphatidylinositol 4,5-bisphosphate 3-kinase catalytic subunit beta isoform; assay: Inhibition of PI3Kbeta in PTEN-null human MDA-MB-468 cells assessed as inhibition of Akt phosphorylation after 2 hrs; assay type: cell-based
[17] = Oral bioavailability in dog at 30 umol/kg administered as propylene glycol; assay type: ADME, organism-based, Canis lupus familiaris; conditions: in vivo
[18] = Volume of distribution in dog at 5 umol/kg, iv administered as bolus dose in 20 to 30% DMA in PBS; assay type: ADME, organism-based, Canis lupus familiaris; conditions: in vivo
Canis familiaris = assay: Intrinsic clearance in dog at 5 umol/kg, iv administered as bolus dose in 20 to 30% DMA in PBS; assay type: ADME, organism-based, Canis lupus familiaris; conditions: in vivo
[19] = Clearance in dog at 5 umol/kg, iv administered as bolus dose in 20 to 30% DMA in PBS; assay type: ADME, organism-based, Canis lupus familiaris; conditions: in vivo
BT-474 = assay: Selectivity ratio of IC50 for human PI3Kbeta in human MDA-MB-468 cells to IC50 for PI3Kalpha in human BT474 cells; assay type: cell-based

T3 sequence (P42338 whole entry, canonical isoform): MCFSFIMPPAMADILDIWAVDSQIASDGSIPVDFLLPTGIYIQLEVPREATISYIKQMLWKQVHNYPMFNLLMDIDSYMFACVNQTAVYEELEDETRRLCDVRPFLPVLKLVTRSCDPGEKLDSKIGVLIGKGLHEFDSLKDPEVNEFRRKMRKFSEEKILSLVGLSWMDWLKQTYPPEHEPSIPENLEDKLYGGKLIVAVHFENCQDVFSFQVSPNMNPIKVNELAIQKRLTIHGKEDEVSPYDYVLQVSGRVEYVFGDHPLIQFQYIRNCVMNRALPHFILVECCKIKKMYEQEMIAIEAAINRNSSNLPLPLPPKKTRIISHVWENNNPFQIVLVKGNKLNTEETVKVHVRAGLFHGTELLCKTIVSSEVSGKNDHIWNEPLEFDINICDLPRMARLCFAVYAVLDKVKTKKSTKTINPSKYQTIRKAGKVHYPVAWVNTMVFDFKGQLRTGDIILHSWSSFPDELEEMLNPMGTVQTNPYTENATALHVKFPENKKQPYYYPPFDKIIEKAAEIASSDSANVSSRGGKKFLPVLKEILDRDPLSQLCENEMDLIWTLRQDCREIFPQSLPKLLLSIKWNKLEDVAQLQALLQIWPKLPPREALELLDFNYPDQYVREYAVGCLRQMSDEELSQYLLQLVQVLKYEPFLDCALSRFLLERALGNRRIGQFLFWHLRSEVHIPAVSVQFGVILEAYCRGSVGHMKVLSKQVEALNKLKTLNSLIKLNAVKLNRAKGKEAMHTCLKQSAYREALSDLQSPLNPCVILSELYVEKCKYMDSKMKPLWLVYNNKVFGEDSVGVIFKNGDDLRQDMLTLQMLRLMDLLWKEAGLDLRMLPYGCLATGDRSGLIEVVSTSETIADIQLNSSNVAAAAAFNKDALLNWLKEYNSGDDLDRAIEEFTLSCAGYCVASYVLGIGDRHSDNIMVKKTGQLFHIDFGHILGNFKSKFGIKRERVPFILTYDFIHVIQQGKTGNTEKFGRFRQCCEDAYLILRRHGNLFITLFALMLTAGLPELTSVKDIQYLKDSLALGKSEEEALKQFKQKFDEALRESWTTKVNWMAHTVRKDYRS
Phosphatidylinositol 4,5-bisphosphate 3-kinase catalytic subunit gamma isoform, sequence (P48736 whole entry, canonical isoform): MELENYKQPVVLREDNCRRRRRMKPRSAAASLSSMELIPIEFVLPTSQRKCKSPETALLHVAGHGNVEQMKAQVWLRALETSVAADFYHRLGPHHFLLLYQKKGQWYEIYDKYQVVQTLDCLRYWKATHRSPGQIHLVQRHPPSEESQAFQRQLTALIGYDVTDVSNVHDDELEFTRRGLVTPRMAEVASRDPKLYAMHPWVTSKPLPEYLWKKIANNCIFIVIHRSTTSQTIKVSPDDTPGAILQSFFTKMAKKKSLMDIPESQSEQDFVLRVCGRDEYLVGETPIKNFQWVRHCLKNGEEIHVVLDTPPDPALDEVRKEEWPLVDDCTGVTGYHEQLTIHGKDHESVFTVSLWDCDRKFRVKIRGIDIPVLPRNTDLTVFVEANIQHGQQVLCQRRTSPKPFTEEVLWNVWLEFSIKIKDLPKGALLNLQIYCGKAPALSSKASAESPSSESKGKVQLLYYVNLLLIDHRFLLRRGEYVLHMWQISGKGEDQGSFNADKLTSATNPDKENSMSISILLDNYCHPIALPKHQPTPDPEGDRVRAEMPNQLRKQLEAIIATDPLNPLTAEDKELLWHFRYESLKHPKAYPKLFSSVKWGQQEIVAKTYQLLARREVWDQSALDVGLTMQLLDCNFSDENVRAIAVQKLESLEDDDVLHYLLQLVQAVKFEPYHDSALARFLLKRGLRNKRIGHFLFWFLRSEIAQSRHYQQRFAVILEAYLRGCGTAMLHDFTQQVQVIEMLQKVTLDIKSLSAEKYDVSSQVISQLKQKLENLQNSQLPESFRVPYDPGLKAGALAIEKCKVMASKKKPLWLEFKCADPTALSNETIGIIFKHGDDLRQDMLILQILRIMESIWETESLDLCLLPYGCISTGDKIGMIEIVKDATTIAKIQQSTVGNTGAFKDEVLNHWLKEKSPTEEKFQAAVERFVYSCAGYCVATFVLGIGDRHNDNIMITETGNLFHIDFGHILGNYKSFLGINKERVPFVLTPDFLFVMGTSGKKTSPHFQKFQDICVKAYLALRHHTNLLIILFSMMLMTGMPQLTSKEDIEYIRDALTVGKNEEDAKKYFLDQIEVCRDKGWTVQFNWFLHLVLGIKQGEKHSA

Compound | IC50 [1] [µM] | bioavailability [2] [%] | AUC [3] [µM·h] | IC50 [4] [µM] | logD [5] | clearance [6] [mL/min/kg] | IC50 [7] [µM] | IC50 [8] [µM] | fraction unbound [9] | Papp A→B [10] [×10⁻⁶ cm/s] | Vd [11] [L/kg] | hepatocyte CLint [12] [µL/min/1e6 cells] | clearance (Mus musculus) [mL/min/kg] | fraction unbound [13] | IC50 [14] [µM] | fraction unbound [15] | IC50 [16] [µM] | bioavailability [17] [%] | Vd [18] [L/kg] | clearance (Canis familiaris) [mL/min/kg] | also measured
C[C@@H](Nc1cccc(Cl)c1F)c1cc(C(=O)N(C)C)cc2c(=O)cc(N3CCOCC3)oc12 | 0.5 | 19 | 0.9 | 0.022 | 2.3 | 81 | 0.028 | 0.32 | – | 21 | 1.7 | < 3 | 64 | 0.15 | 0.005 | 0.26 | 0.02 | – | – | – | –
C[C@@H](Nc1cc(F)cc(F)c1F)c1cc(C(=O)N(C)C)cc2c(=O)cc(N3CCOCC3)oc12 | 0.9 | 42 | 1.5 | 0.041 | 2.3 | 137 | 0.14 | 1.5 | 0.28 | 16 | 1.7 | < 5 | 99 | 0.27 | 0.008 | 0.43 | 0.006 | 47 | 2.2 | 16 | clearance [19]: 28 mL/min/kg
C[C@H]1CN(c2cc(=O)c3cc(C(=O)N(C)C)cc([C@@H](C)Nc4cc(F)cc(F)c4)c3o2)CCO1 | 0.11 | 50 | 3.3 | 0.012 | 2.7 | 76 | 0.012 | 0.14 | 0.12 | 14 | 2.2 | < 3 | 53 | 0.14 | 0.004 | 0.2 | 0.0004 | 5 | 2.5 | 15 | clearance [19]: 69 mL/min/kg

The remaining compounds from weak to strong by IC50 [1], led by results:

IC50 [1] [µM] | bioavailability [2] [%] | AUC [3] [µM·h] | IC50 [4] [µM] | logD [5] | clearance [6] [mL/min/kg] | IC50 [7] [µM] | IC50 [8] [µM] | fraction unbound [9] | Papp A→B [10] [×10⁻⁶ cm/s] | Vd [11] [L/kg] | hepatocyte CLint [12] [µL/min/1e6 cells] | clearance (Mus musculus) [mL/min/kg] | fraction unbound [13] | IC50 [14] [µM] | fraction unbound [15] | IC50 [16] [µM] | Compound | bioavailability [17] [%] | Vd [18] [L/kg] | clearance (Canis familiaris) [mL/min/kg] | also measured
3.2 | – | – | 0.08 | 2.2 | – | 0.093 | 3.2 | – | – | – | < 3 | – | – | 0.008 | – | 0.035 | CN(C)C(=O)c1cc(CNc2cc(F)cc(F)c2)c2oc(N3CCOCC3)cc(=O)c2c1 | – | – | – | Ratio IC50 (BT-474): 100
2.5 | 19 | 0.8 | 0.032 | 1.9 | 112 | 0.17 | 2.5 | 0.25 | 6.5 | 1.7 | < 3 | 57 | 0.27 | 0.007 | 0.34 | 0.017 | C[C@@H](Nc1ccc(F)c(F)c1)c1cc(C(=O)N(C)C)cc2c(=O)cc(N3CCOCC3)oc12 | – | – | – | –
0.17 | 23 | 0.8 | 0.028 | 2.8 | 134 | 0.025 | 0.21 | 0.04 | 11 | 3.5 | 12 | 147 | 0.06 | – | 0.14 | – | C[C@@H](Nc1cc(F)cc(Cl)c1)c1cc(C(=O)N(C)C)cc2c(=O)cc(N3CCOCC3)oc12 | – | – | – | –
